Test results published in patent US10253029B2, “Dual-warhead covalent inhibitors of FGFR-4” (Newave Pharmaceutical Inc., priority 2015, dated 2019).

How the values were obtained:
[1] = target: T1, wild type FGFR-4 (Homo sapiens, UniProt P22455); assay: FGFR-4 wild type assay at Km (Caliper mobility shift); type: biochemical; conditions: wild type FGFR-4, 400 uM ATP, 25 C, 90 minutes
T1 construct: purchased Carna Biosciences, Inc
Method: (§1) In order to assess the activity of chemical compounds against the relevant kinase of interest, the Caliper LifeSciences electrophoretic mobility shift technology platform is utilized. Fluorescently labeled substrate peptide is incubated in the presence dosed levels of compounds, a set concentration of kinase and of ATP, so that a reflective proportion of the peptide is phosphorylated. At the end of the reaction, the mix of phosphorylated (product) and non-phosphorylated (substrate) peptides are passed through the microfluidic system of the Caliper LabChip® EZ Reader II, under an applied potential difference. The presence of the phosphate group on the product peptide provides a difference in mass and charge between the product peptide and the substrate peptide, resulting in a separation of the substrate and product pools in the sample. As the pools pass the LEDS within the instrument, these pools are detected and resolved as separate peaks. The ratio between these peaks therefore reflects the activity of the chemical matter at that concentration in that well, under those conditions.
FGFR-4 wild type assay at Km: In each well of a 384-well plate, 0.5 ng/ul of wild type FGFR-4 (Carna Biosciences, Inc.) was incubated in a total of 12.5 ul of buffer (100 mM HEPES pH 7.5, 0.015% Brij 35, 10 mM MgCl2, ImM DTT) with 1 uM CSKtide (5-FAM-KKKKEEIYFFFG-NH2) and 400 uM ATP at 25 C for 90 minutes in the presence or absence of a dosed concentration series of compound (1% DMSO final concentration). The reaction was stopped by the addition of 70 ul of Stop buffer (100 mM HEPES pH 7.5, 0.015% Brij 35, 35 mM EDTA and 0.2% of Coating Reagent 3 (Caliper Lifesciences)). The plate was then read on a Caliper LabChip® EZ Reader II (protocol settings: −1.9 psi, upstream voltage −700, downstream voltage −3000, post sample sip 35 s).
Such assays, carried out with a range of doses of test compounds, allow the determination of an approximate IC50 value. […] The following table lists the IC50 values of certain compounds of the invention.

[2] = test system: patient-derived liver cancer cell line LIXC012; assay: Antiproliferative activity, ATPlite Luminescence Assay; type: cell-based; conditions: FGF19-overexpressing LIXC012 cells, about 72 hours, 5% FBS; read-out: LIXC012 IC50 (cellular antiproliferative)
Method: The antiproliferative activity of compounds are assessed in the patient-derived liver cancer cell line LIXC012 (Shanghai ChemPartner Co., LTD) by PerkinElmer ATPlite™ Luminescence Assay System. LIXC012 cell line has a FGFR-4 aberrant signaling pathway (FGF19-overexpressing). Briefly, the various test cancer cell lines are plated at a density of about 1×10^4 cells per well in Costar 96-well plates, and are incubated with different concentrations of compounds for about 72 hours in medium supplemented with 5% FBS. One lyophilized substrate solution vial is then reconstituted by adding 5 mL of substrate buffer solution, and is agitated gently until the solution is homogeneous. About 50 μL of mammalian cell lysis solution is added to 100 μL of cell suspension per well of a microplate, and the plate is shaken for about five minutes in an orbital shaker at ˜700 rpm. This procedure is used to lyse the cells and to stabilize the ATP. Next, 50 μL substrate solution is added to the wells and microplate is shaken for five minutes in an orbital shaker at ˜700 rpm. Finally, the luminescence is measured by a PerkinElmer TopCount® Microplate Scintillation Counter. Such assays, carried out with a range of doses of test compounds, allow the determination of the cellular anti-antiproliferative IC50 of the compounds of the present invention. The following table lists the IC50 values of certain compounds of the invention in the FGF19-overexpressing Patient-Derived liver cancer cell line LIXC012.

[3] = target: T2, wild type FGFR-1 (Homo sapiens, UniProt P11362); assay: FGFR-1 wild type assay at Km (Caliper mobility shift); type: biochemical; conditions: wild type FGFR-1, 400 uM ATP, 25 C, 90 minutes
T2 construct: purchased Carna Biosciences, Inc
Method: as §1, with “conditions. […]” for “conditions.”

[4] = target: T3, wild type FGFR-2 (Homo sapiens, UniProt P21802); assay: FGFR-2 wild type assay at Km (Caliper mobility shift); type: biochemical; conditions: wild type FGFR-2, 400 uM ATP, 25 C, 90 minutes
T3 construct: purchased Carna Biosciences, Inc
Method: as §1, with “conditions. […]” for “conditions.”

[5] = target: T4, wild type FGFR-3 (Homo sapiens, UniProt P22607); assay: FGFR-3 wild type assay at Km (Caliper mobility shift); type: biochemical; conditions: wild type FGFR-3, 400 uM ATP, 25 C, 90 minutes
T4 construct: purchased Carna Biosciences, Inc
Method: as §1, with “conditions. […]” for “conditions.”

T1 sequence (P22455 22-802): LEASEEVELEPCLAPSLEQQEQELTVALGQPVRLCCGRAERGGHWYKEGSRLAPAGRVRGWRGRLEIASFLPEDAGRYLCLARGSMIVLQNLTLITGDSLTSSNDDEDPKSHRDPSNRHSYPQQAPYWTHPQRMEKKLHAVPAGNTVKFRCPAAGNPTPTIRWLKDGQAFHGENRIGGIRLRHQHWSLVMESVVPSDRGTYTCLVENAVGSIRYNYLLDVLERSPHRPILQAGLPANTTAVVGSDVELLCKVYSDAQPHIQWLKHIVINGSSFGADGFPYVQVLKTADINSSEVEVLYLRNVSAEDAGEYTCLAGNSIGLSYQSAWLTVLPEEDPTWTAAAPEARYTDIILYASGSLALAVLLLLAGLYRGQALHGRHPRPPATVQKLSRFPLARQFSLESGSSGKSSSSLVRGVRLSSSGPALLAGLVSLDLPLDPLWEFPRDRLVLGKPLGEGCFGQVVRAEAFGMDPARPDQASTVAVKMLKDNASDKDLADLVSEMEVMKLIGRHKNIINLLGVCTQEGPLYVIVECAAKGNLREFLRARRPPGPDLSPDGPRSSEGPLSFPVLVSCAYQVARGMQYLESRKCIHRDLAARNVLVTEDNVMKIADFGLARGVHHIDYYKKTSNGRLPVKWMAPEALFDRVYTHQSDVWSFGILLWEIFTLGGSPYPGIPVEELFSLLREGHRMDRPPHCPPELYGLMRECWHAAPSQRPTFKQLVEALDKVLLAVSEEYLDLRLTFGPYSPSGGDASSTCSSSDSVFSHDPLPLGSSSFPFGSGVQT
T2 sequence (P11362 22-822): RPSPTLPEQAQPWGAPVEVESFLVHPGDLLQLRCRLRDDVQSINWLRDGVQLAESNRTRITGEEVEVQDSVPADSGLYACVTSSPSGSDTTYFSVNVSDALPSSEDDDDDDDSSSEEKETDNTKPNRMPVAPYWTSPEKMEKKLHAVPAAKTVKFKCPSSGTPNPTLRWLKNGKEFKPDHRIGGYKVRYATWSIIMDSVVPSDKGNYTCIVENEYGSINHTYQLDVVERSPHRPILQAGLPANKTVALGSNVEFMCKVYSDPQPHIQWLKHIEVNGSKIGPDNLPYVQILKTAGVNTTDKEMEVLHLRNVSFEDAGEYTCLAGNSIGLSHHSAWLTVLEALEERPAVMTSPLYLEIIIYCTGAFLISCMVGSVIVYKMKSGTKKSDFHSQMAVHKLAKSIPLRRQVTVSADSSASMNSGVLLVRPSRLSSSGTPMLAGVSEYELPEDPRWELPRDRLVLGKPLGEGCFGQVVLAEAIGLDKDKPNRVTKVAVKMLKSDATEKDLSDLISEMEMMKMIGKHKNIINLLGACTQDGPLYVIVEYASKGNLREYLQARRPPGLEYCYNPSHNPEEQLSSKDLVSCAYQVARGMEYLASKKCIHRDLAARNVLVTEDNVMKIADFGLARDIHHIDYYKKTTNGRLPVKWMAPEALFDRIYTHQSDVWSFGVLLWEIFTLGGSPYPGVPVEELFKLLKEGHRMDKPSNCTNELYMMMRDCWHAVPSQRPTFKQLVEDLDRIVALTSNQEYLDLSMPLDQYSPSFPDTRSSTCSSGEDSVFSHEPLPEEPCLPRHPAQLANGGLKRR
T3 sequence (P21802 22-821): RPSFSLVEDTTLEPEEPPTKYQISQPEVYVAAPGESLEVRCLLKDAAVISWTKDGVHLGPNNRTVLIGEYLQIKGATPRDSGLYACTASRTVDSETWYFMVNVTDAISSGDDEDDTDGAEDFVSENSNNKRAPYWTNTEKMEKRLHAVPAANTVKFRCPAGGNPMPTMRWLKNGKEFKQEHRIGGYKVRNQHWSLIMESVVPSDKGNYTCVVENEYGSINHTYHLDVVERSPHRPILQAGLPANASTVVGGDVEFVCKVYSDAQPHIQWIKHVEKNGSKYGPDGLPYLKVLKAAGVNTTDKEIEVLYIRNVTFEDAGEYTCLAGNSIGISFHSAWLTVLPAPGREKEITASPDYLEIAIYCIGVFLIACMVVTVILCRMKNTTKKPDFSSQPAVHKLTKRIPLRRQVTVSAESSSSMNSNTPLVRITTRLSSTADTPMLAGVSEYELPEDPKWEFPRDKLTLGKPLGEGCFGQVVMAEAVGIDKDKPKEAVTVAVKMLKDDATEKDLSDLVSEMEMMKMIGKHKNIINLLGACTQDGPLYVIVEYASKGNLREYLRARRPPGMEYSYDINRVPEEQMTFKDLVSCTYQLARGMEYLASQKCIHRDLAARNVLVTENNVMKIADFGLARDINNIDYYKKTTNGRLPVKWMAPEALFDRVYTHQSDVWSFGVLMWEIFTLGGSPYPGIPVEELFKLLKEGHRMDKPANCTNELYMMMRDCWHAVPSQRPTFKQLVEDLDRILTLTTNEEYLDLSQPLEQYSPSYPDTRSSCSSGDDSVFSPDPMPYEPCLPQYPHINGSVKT
T4 sequence (P22607 23-806): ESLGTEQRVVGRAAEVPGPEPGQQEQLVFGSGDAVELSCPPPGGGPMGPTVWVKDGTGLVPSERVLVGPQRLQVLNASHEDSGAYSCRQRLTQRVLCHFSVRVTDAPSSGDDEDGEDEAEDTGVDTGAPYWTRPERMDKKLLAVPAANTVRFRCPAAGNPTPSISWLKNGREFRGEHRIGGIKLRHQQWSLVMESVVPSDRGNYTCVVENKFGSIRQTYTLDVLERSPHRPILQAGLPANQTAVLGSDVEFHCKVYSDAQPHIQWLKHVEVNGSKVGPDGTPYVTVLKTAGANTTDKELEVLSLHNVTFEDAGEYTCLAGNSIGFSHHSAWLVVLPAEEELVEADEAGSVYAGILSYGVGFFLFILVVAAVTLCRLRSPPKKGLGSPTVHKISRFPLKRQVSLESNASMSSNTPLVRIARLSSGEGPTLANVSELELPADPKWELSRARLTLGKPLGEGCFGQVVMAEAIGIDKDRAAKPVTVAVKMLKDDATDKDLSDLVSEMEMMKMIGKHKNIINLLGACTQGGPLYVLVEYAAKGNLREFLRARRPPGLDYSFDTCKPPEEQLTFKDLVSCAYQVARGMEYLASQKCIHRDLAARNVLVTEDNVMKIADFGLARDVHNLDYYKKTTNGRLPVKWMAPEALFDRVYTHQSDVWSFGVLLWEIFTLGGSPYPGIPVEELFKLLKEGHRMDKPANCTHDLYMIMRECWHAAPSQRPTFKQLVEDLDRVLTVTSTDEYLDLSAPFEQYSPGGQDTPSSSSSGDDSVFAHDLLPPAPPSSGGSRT

IC50 [1] [nM] | IC50 [2] [nM] | IC50 [3] [nM] | IC50 [4] [nM] | IC50 [5] [nM] | SMILES
< 50 |  |  |  |  | C=CC(=O)Nc1cccc(C)c1Nc1ncc2cc(-c3c(Cl)c(OC)cc(OC)c3Cl)c(=O)n(CC3CCN(C(=O)/C=C/CN(C)C)C3)c2n1 (stereo not shown) [CY-15-5]
< 50 | 660 | > 1000 | > 1000 | > 1000 | C=CC(=O)Nc1ccc(CCn2c(=O)c(-c3c(Cl)c(OC)cc(OC)c3Cl)cc3cnc(Nc4c(C)cccc4NC(=O)C=C)nc32)cc1 [CY-15-3, N-(4-(2-(2-(2-acrylamido-6-methylphenylamino)-6-(2,6-dichloro-3,5-dimethoxyphenyl)-7-oxopyrido[2,3-d]pyrimidin-8(7H)-yl)ethyl)phenyl)acrylamide]
< 50 |  |  |  |  | C=CC(=O)Nc1cccc(C)c1Nc1ncc2cc(-c3c(Cl)c(OC)cc(OC)c3Cl)c(=O)n(CCCN3CCN(C(=O)C=C)CC3)c2n1 [CY-15-8]
< 50 |  |  |  |  | C=CC(=O)Nc1cccc(C)c1Nc1ncc2cc(-c3c(Cl)c(OC)cc(OC)c3Cl)c(=O)n(CC3CN(C(=O)/C=C/CN(C)C)C3)c2n1 [CY-15-4]
< 50 |  |  |  |  | C=CC(=O)Nc1cccc(C)c1Nc1ncc2cc(-c3c(Cl)c(OC)cc(OC)c3Cl)c(=O)n(CCN3CCN(C(=O)C=C)CC3)c2n1 [CY-15-7]
< 50 |  |  |  |  | C=CC(=O)Nc1cccc(C)c1Nc1ncc2cc(-c3c(Cl)c(OC)cc(OC)c3Cl)c(=O)n(CC3CCN(C(=O)/C=C/CN(C)C)CC3)c2n1 [CY-15-6]
< 50 | 490 | > 1000 | > 1000 | > 1000 | C=CC(=O)Nc1ccc(Cn2c(=O)c(-c3c(Cl)c(OC)cc(OC)c3Cl)cc3cnc(Nc4c(C)cccc4NC(=O)C=C)nc32)cc1 [CY-15-2, N-(4-((2-((2-acrylamido-6-methylphenyl)amino)-6-(2,6-dichloro-3,5-dimethoxyphenyl)-7-oxopyrido[2,3-d]pyrimidin-8(7H)-yl)methyl)phenyl)acrylamide]
 | 280 |  |  |  | C=CC(=O)Nc1cccc(C)c1Nc1ncc2cc(-c3c(Cl)c(OC)cc(OC)c3Cl)ccc2n1 [BLU9931, reference compound]
